The record followed here is article PMC11357446, “Searching for Novel HDAC6/Hsp90 Dual Inhibitors with Anti-Prostate Cancer Activity: In Silico Screening and In Vitro Evaluation” (Pharmaceuticals, 2024).

Where two headings read alike, the source gives them in different places. Where only a bound is given, the exact number is not on record here.

The subject of assay [1] is LNCaP prostate cancer cells. Description: Cell viability assay (PrestoBlue) on LNCaP cells. Type of assay: cell-based, human. To be noted: 72 h treatment, PrestoBlue, mean of three independent experiments ± SEM, read-out: LNCaP GI50. The procedure: The human prostate cancer cell line PC-3 (ATCC Cat# CRL-1435) was grown in Ham’s F12 (Biowest, Nuaillé, France) medium, while the human prostate cancer cell line LNCaP (ATCC Cat# CRL-1740) was grown in RPMI 1640 (Biowest, Nuaillé, France) medium. Both media were supplemented with 10% Fetal Bovine Serum (FBS, Gibco, Fisher Scientific Italia, Segrate, Italy), 2 mM glutamine, 100 U/mL penicillin, and 100 μg/mL streptomycin. PC-3 and LNCaP cells were maintained at 37 °C in a humidified 5% CO2 atmosphere.
PC-3 and LNCaP cells were seeded at a density of 4000 and 6000 cells/well into a 96-well plate, respectively, together with a calibration curve of known cell numbers. The following day, the cells were treated with the indicated test compounds at different concentrations starting at 75μM with 2-fold serial dilutions. Cell viability was evaluated after 72h by colorimetric MTT (PC-3) or PrestoBlue™ (LNCaP) cell viability reagents. A total of 0.5 mg/mL of thiazolyl blue tetrazolium bromide (MTT) (Sigma-Aldrich, St. Louis, MO, USA) in Ham’s F12 medium was added to the wells, and the plate was incubated at 37 °C for 2 h. Medium containing unconverted MTT was removed, and 100 μL of MTT solvent (4 mM HCl, 0.1% NP40, in isopropyl alcohol) was added to the wells in order to solubilize MTT crystals. After 15 min of incubation at room temperature, the absorbance values at 570 nm were obtained with a Multiskan FC Microplate Photometer (Thermo Fisher Scientific, Waltham, MA, USA). PrestoBlue reagent (#A13261, Thermo Fisher Scientific, Waltham, MA, USA) was added to the medium (1:10 v/v) and incubated for 1 h at 37 °C. Cell viability was calculated by quantifying PrestoBlue reduction by measuring the absorbance at 570 and 620 nm, according to the manufacturer’s protocol. The viability of untreated cells was arbitrarily set at 100%, and the concentration at which cellular growth is inhibited by 50% (GI50) was determined. Three independent experiments were performed.

Assay [2] relates to acetylated tubulin (Ac-Tub) in LNCaP cells. Briefly: Western blot of acetylated α-Tubulin in LNCaP cells. The class given is cell-based, human. The note with it: 24 h at GI50 concentration, normalized with Tubulin. On the procedure:
To assess whether the observed antiproliferative activity of the selected compounds was a consequence of HDAC6-targeting, we examined the effect of the cell treatments on the expression levels of acetylated tubulin (Ac-Tub), a well-known HDAC6 target. LNCaP and PC-3 cells were treated with the tested compounds at their GI50 concentrations, and SDS-PAGE and western blot were performed. In addition, the acetylation levels of histone H3, which are mainly regulated by HDAC1, were also evaluated in order to exclude potential class I-HDAC off-target activities. We used Tubastatin-A and Geldanamycin as reference controls for cellular effects resulting from HDAC6- and Hsp90-inhibition, respectively. The results in Figure 2 show a significant increase in α-Tubulin acetylation in LNCaP cells after treatments with compounds 8, 11 and 18. Indeed, these compounds triggered a 2.9-, 5.1-, and 2.5-fold increase, respectively, compared to the control (DMSO). […].
Figure 2 Western blot analysis and relative quantification of the expression levels of acetylated-Tubulin (Ac-TUB), acetylated H3 (Ac-H3), and HSP70 in LNCaP (A,B) and PC-3 (C,D) cells treated for 24 h at GI50 concentration. Tubastatin-A was used as HDAC6-specific positive control, Geldanamycin (GELDA) as HSP90-specific positive control, and SAHA as pan-HDAC inhibitor. Protein expression was normalized with Tubulin levels (Ac-TUB and HSP70) or total H3 (Ac-H3). Quantification is reported as fold change in treated cells versus DMSO control (CTR), arbitrarily set at 1 (one sample t-test p-values: * p < 0.05, ** p < 0.01, *** p < 0.001, **** p < 0.0001; n = 3).
Cell treatment. PC-3 and LNCaP cells were grown in 12-well tissue-culture plates and treated with test compounds at the evaluated GI50 concentration for each candidate inhibitor for 24 h. DMSO was used as a negative control, while Tubastatin-A and Geldanamycin were used as positive controls for HDAC6 and Hsp90 inhibition, respectively. Vorinostat (SAHA) was used as a pan-HDACi control. […] Protein quantitation was performed with Pierce Detergent Compatible Bradford Assay (#23246, Thermo Fisher Scientific, MA, USA), and equivalent amounts of cellular extracts were resolved by SDS-PAGE, transferred to PVDF or Nitrocellulose membrane with Trans-Blot Turbo Transfer System (Bio-Rad, Hercules, CA, USA), and immunoblotted with the following primary antibodies, diluted 1:1000 in 1× TBS with 1 mg/mL BSA: Anti-Histone H3 (#PA5-16183, Invitrogen, Thermo Fisher Scientific, MA, USA), Anti-acetylated histone H3 (#sc-518011, Santa Cruz Biotechnology, Inc., Dallas, TX, USA), Anti-Tubulin (#E-AB-20073, Elabscience, Houston, TX, USA), Anti-acetylated α-tubulin (#sc-23950, Santa Cruz), and Anti-HSP70 (#4872S, Cell Signaling Technology, Inc., Danvers, MA, USA). […]

Consider `CC(C)[C@H](C(=O)NCc1ccc(C(=O)NO)cc1)N1Cc2ccccc2C1=O` [Compound 11], for which the GI50 in assay [1] (Homo sapiens, LNCaP, 72 h) is 41.3 ± 8.7 µM. The “α-Tubulin acetylation, fold increase compared to the control (DMSO)” value (shortened to “α-Tubulin acetylation, fold increase”) in assay [2] was 5.1 fold.
`O=C(c1cc(OCc2ccccc2)ccc1O)N1CCC(c2noc(C(F)(F)F)n2)CC1` [Compound 8]: the GI50 in assay [1] is 51.6 ± 3.7 µM; in assay [1] (Homo sapiens, LNCaP, 72 h), approximately 50 µM. In addition, the “α-Tubulin acetylation, fold increase” value in assay [2] came out at 2.9 fold.
`O=C(Nc1ncccc1O)c1ccc(-c2noc(C(F)(F)F)n2)cc1` [Compound 18]: the 50% growth inhibitory concentration (GI50) in assay [1] (Homo sapiens, LNCaP, 72 h) was more than 75 µM. Further, the “α-Tubulin acetylation, fold increase” value in assay [2] was 2.5 fold.
